# Read-outs that look alike come from different tables or passages of the source.
# How the values were obtained:
# [1] = Solubility of drugs in the adhesive compositions / patches
# Method: Three different grades of composition were employed in solubility experiments: A, B and C (see below). A is the grade which was used for initial studies and further was used as the standard grade for solubility tests.
# A sample of composition is pre-heated to 80° C. in a closed cartridge or inert environment to avoid contact with moisture and approximately 10 ml of the composition is added into a beaker and weighed. A desired quantity of drug, preservative and excipients are then added to the mixture. The mixture is mixed until it has been homogenised and is then cast with the help of a heated Meyer bar onto a release liner. Once cast, the layers of composition are cured at 60° C. in a humid environment during 16 hours.
# In all experiments benzyl alcohol (BenzOH) was employed as a co-solvent. BenzOH is widely used in both pharmaceutical and cosmetic formulations as a preservative, and therefore its addition is required to improve the shelf life of patches. […] Additionally, it acts as a solvent for drugs improving their dissolution in the polymer matrix compositions. The total amount of BenzOH in all formulations was in a range of 1-3% w/w.
# All compounds in the liquid state were added by volume, which was estimated using their specific densities.
# [2] = Drug release analysis: permeation from patch across Pion membrane in Franz cell; settings: patch of the invention, PBS pH 7.4
# Method: The membrane and patch are then placed in a Franz cell and then a PBS pH 7.4 buffer solution is added. Samples are taken at one hour interval for 8 hours. The amount of drug released is calculated using a validated HPLC/UV-Vis method depending on the drug in question.
# [3] = cited from earlier work
molecule,measurement,setting,value
CC(C)(C)NCC(O)c1ccc(O)c(CO)c1 (stereo not drawn) [Salbutamol],Max. mass fraction,[1],5%
same,Sol. type,[1],Molecular
same,Soluble in A,[1],✓
COc1cc(Cc2cnc(N)nc2N)cc(OC)c1OC [Trimethoprim],Sol. type,[1],Dispersion
CC(C(=O)O)c1cccc(C(=O)c2ccccc2)c1 (stereo not drawn) [Ketoprofen],Permeated drug amount,[2]; sample 1 hours,0.90 μg cm^−2
same,Permeated drug amount,[2]; sample 2 hours,4.59 μg cm^−2
same,Permeated drug amount,[2]; sample 4 hours,17.37 μg cm^−2
same,Permeated drug amount,[2]; sample 6 hours,35.67 μg cm^−2
CC(C)Cc1ccc(C(C)C(=O)O)cc1 (stereo not drawn) [Ibuprofen],Permeated drug amount,[2]; sample 1 hours,15.46 μg cm^−2
same,Permeated drug amount,[2]; sample 2 hours,37.23 μg cm^−2
same,Permeated drug amount,[2]; sample 4 hours,73.85 μg cm^−2
same,Permeated drug amount,[2]; sample 6 hours,99.60 μg cm^−2
[H]/N=C(\N/C(=N/[H])NCCCCCCNC(=N)NC(=N)Nc1ccc(Cl)cc1)Nc1ccc(Cl)cc1 [Chlorhexidine],Sol. type,[1],Molecular
same,Solubility in compositions and patches of the invention,[1]; Medherant patches / compositions of the invention,~3.5 % w/w
same,Max. mass fraction,[1]; grade A composition (Table 5),3.5%
same,Soluble in A,[1]; grade A composition (Table 5),✓
O=C(O)Cc1ccccc1Nc1c(Cl)cccc1Cl [Diclofenac],Permeated drug amount,[2]; sample 1 hours,0.11 μg cm^−2
same,Permeated drug amount,[2]; sample 2 hours,0.16 μg cm^−2
same,Permeated drug amount,[2]; sample 4 hours,0.39 μg cm^−2
same,Permeated drug amount,[2]; sample 6 hours,0.47 μg cm^−2
CC1(C)S[C@@H]2[C@H](NC(=O)Cc3ccccc3)C(=O)N2[C@H]1C(=O)O [Penicillin G],Sol. type,[1]; grade A composition (Table 5),Dispersion
CC(C(=O)O)c1ccc(-c2ccccc2)c(F)c1 (stereo not drawn) [Flurbiprofen],Solubility in water,[3],25 µg/mL
same,Sol. type,[1],Molecular
same,"Conc., wt %",[1]; grade A composition,>5 wt %
same,Solubility of analgesic drugs in compositions: A,[1]; grade A composition,✓
same,Max. mass fraction,[1]; grade A composition (Table 5),15%
same,Soluble in A,[1]; grade A composition (Table 5),✓
same,"Conc., wt %",[1]; grade B composition,>5 wt %
same,Solubility of analgesic drugs in compositions: B,[1]; grade B composition,✓
C[C@@H]1CC[C@H]2[C@@H](C)C(=O)O[C@@H]3O[C@@]4(C)CC[C@@H]1[C@]32OO4 [Artemisinin],Solubility in water,[3],insoluble
same,Max. mass fraction,[1],9%
same,Sol. type,[1],Molecular
same,Soluble in A,[1],✓
O=C(C1CCCCC1)N1CC(=O)N2CCc3ccccc3C2C1 (stereo not drawn) [Praziquantel],Max. mass fraction,[1],10%
same,Sol. type,[1],Molecular
same,Soluble in A,[1],✓
CCCN[C@H]1CCc2nc(N)sc2C1 [Pramipexole],Solubility in water,[3],3900 µg/mL
same,Sol. type,[1],Dispersion
CC(=O)[C@H]1CC[C@H]2[C@@H]3CCC4=CC(=O)CC[C@]4(C)[C@H]3CC[C@]12C [Progesterone],Solubility in water,[3],9 µg/mL
same,Max. mass fraction,[1],15%
same,Sol. type,[1],Molecular
same,Soluble in A,[1],✓
CN1C(C(=O)Nc2ccccn2)=C(O)c2ccccc2S1(=O)=O [Piroxicam],Sol. type,[1],Molecular
same,"Conc., wt %",[1]; grade A composition,~2.5 wt %
same,Solubility of analgesic drugs in compositions: A,[1]; grade A composition,✓
same,Max. mass fraction,[1]; grade A composition (Table 5),2.5%
same,Soluble in A,[1]; grade A composition (Table 5),✓
same,"Conc., wt %",[1]; grade B composition,~2.5 wt %
same,Solubility of analgesic drugs in compositions: B,[1]; grade B composition,✓
same,Limited solubility,[1]; standard grade (A),~2.5 % w/w
O=C(O)c1ccccc1O [Salicylic acid],"Conc., wt %",[1],>5 wt %
same,Max. mass fraction,[1],30%
same,Sol. type,[1],Molecular
same,"Solubility in the standard grade (A) composition, in words",[1],readily soluble
same,Solubility of analgesic drugs in compositions: A,[1],✓
same,Solubility of analgesic drugs in compositions: B,[1],✓
same,Soluble in A,[1],✓
same,Permeated drug amount,[2]; sample 1 hours,3.38 μg cm^−2
same,Permeated drug amount,[2]; sample 2 hours,11.92 μg cm^−2
same,Permeated drug amount,[2]; sample 4 hours,31.75 μg cm^−2
same,Permeated drug amount,[2]; sample 6 hours,54.71 μg cm^−2
C[C@@H]1[C@H](O)[C@@H](C)/C=C/C=C/CC/C=C/C=C/C=C/C=C/C(O[C@H]2O[C@H](C)[C@@H](O)[C@H](N)[C@@H]2O)CC2O[C@](O)(CC(O)C(O)CCC(O)CC(O)CC(O)CC(=O)O[C@H]1C)CC(O)C2C(=O)O (stereo partly drawn) [Nystatin],Sol. type,[1]; grade A composition (Table 5),Molecular
same,Soluble in A,[1]; grade A composition (Table 5),✓
COC(=O)c1ccccc1O [Methyl salicylate],Solubility in water,[3],690 µg/mL
same,Sol. type,[1],Molecular
same,Solubility in adhesive F15,[1]; adhesive grade F15,✓
same,Solubility in adhesive F16,[1]; adhesive grade F16,✓
same,Solubility in adhesive F17,[1]; adhesive grade F17,✓
same,"Conc., wt %",[1]; grade A composition,>5 wt %
same,Solubility of analgesic drugs in compositions: A,[1]; grade A composition,✓
same,Max. mass fraction,[1]; grade A composition (Table 5),30%
same,Soluble in A,[1]; grade A composition (Table 5),✓
same,"Conc., wt %",[1]; grade B composition,>5 wt %
same,Solubility of analgesic drugs in compositions: B,[1]; grade B composition,✓
same,Drug solubility compared between all three grades,"[1]; grades A, B and C",identical
same,"Solubility in the standard grade (A) composition, in words",[1]; standard grade (A),readily soluble
same,Permeated drug amount,[2]; sample 1 hours,18.25 μg cm^−2
same,Permeated drug amount,[2]; sample 2 hours,24.58 μg cm^−2
same,Permeated drug amount,[2]; sample 4 hours,59.78 μg cm^−2
same,Permeated drug amount,[2]; sample 6 hours,83.03 μg cm^−2
Cc1ccc2c(Cl)cc(Cl)c(O)c2n1 [Chlorquinaldol],Solubility in water,[3],insoluble
same,Max. mass fraction,[1]; grade A composition (Table 5),15%
same,Sol. type,[1]; grade A composition (Table 5),Molecular
same,Soluble in A,[1]; grade A composition (Table 5),✓
same,"Solubility in compositions and patches of the invention, in words",[1]; grades of the compositions of the invention,good dissolution
same,Concentration / mass fraction in patches can be increased up to,[1]; patches of the invention,up to 15 % w/w
COc1ccc2c(c1)c(CC(=O)O)c(C)n2C(=O)c1ccc(Cl)cc1 [Indomethacin],Solubility in water,[3],2 µg/mL
same,"Conc., wt %",[1],>5 wt %
same,Max. mass fraction,[1],10%
same,Sol. type,[1],Molecular
same,Solubility of analgesic drugs in compositions: A,[1],✓
same,Solubility of analgesic drugs in compositions: B,[1],✓
same,Soluble in A,[1],✓
C[C@]12C=CC(=O)C=C1CC[C@@H]1[C@@H]2[C@@H](O)C[C@@]2(C)[C@H]1CC[C@]2(O)C(=O)CO [Prednisolone],Sol. type,[1]; grade A composition (Table 5),Dispersion
Ivermectin,Max. mass fraction,[1]; grade A composition (Table 5),5%
same,Sol. type,[1]; grade A composition (Table 5),Molecular
same,Soluble in A,[1]; grade A composition (Table 5),✓
CN(Cc1cnc2nc(N)nc(N)c2n1)c1ccc(C(=O)N[C@@H](CCC(=O)O)C(=O)O)cc1 [Methotrexate],Solubility in water,[3],insoluble
same,Sol. type,[1],Molecular
same,Max. mass fraction,[1]; grade A composition (Table 5),7%
same,Soluble in A,[1]; grade A composition (Table 5),✓
C[C@]12CC[C@H]3[C@@H](CCC4=CC(=O)CC[C@@]43C)[C@@H]1CC[C@@H]2O [Testosterone],Max. mass fraction,[1]; grade A composition (Table 5),5%
same,Sol. type,[1]; grade A composition (Table 5),Molecular
same,Soluble in A,[1]; grade A composition (Table 5),✓
CN1CCCC1c1cccnc1 (stereo not drawn) [Nicotine],Concentration / mass fraction in patches can be increased up to,[1],up to 30 % w/w
same,Max. mass fraction,[1],30%
same,Sol. type,[1],Molecular
same,"Solubility in compositions and patches of the invention, in words",[1],freely soluble
same,Soluble in A,[1],✓
same,Permeated drug amount,[2]; sample 1 hours,2.26 μg cm^−2
same,Permeated drug amount,[2]; sample 2 hours,5.05 μg cm^−2
same,Permeated drug amount,[2]; sample 4 hours,13.76 μg cm^−2
same,Permeated drug amount,[2]; sample 6 hours,18.33 μg cm^−2
CC(C)[C@@H]1CC[C@@H](C)C[C@H]1O [Levomenthol],"Conc., wt %",[1],>5 wt %
same,Max. mass fraction,[1],30%
O=C(Oc1ccccc1C(=O)O)c1ccccc1O [Salsalate],Solubility in water,[3],246 µg/mL
same,"Conc., wt %",[1],>5 wt %
same,Max. mass fraction,[1],10%
same,Sol. type,[1],Molecular
same,Solubility of analgesic drugs in compositions: A,[1],✓
same,Solubility of analgesic drugs in compositions: B,[1],✓
same,Soluble in A,[1],✓
Cn1c(=O)c2c(ncn2C)n(C)c1=O [Caffeine],Permeated drug amount,[2]; sample 1 hours,0.19 μg cm^−2
same,Permeated drug amount,[2]; sample 2 hours,2.33 μg cm^−2
same,Permeated drug amount,[2]; sample 4 hours,3.26 μg cm^−2
same,Permeated drug amount,[2]; sample 6 hours,21.89 μg cm^−2
CCCNC(C)C(=O)Nc1ccccc1C (stereo not drawn) [Prilocaine],Solubility in water,[3],540 µg/mL
same,Distribution of the drug in the patch,[1],uniformly distributed in the patch in a form of micro particles
same,Sol. type,[1],Dispersion
same,"Solubility in the standard grade (A) composition, in words",[1],poor solubility
C[C@H]1[C@H](OC(=O)CCC(=O)O)O[C@@H]2O[C@@]3(C)CC[C@H]4[C@H](C)CC[C@@H]1[C@@]24OO3 [Artesunate],Solubility in water,[3],56 µg/mL
same,Max. mass fraction,[1],6%
same,Sol. type,[1],Molecular
same,Soluble in A,[1],✓
CC(=O)Oc1ccccc1C(=O)O [Aspirin],Sol. type,[1],Dispersion
